A word on the IC50: it is the concentration that inhibits the measured activity by half.

Consider one compound from patent publication US9796742B2, “Kinase inhibitors” (Respivert Limited, priority 2012, dated 2017).

For one assay, the target named is Syk (Homo sapiens (Human), UniProt P43405). Briefly: Syk enzyme inhibition (FRET, Z-LYTE). It counts as biochemical. The procedure, abridged: (§1)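 Z-LYTE FRET peptide assay with enzyme preincubated with compound for 2 h at RT, then 1 h kinase reaction and 1 h protease development. ATP solutions were 800 μM for c-Src and 60 μM for Syk. Inhibition was taken from the coumarin/fluorescein emission ratio, and IC50 from concentration-response curves.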

The target of the next assay is GSK3α (Homo sapiens (Human), UniProt P49840). Briefly: GSK 3α enzyme inhibition (FRET, Z-LYTE; Method 2). It is filed as biochemical. The essentials: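 GSK3-α protein preincubated with compound for 105 min, then Z-LYTE FRET peptide and ATP added for 1 h before protease development for 1 h. Phosphorylation taken from coumarin/fluorescein emission ratio; percent inhibition against uninhibited control and IC50 calculated from concentration-response curves.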

In another assay the target is p38 MAPKα (Homo sapiens (Human), UniProt Q16539). Briefly: p38 MAPKα enzyme inhibition (FRET, Z-LYTE; Method 2). It is filed as biochemical. The procedure, abridged:
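p38 MAPKα (2.5 μL of 200 ng/mL stock) preincubated 2 h at RT with compound, then kinase reaction 1 h at RT with readout via MAPKAP-K2 activation using a Z-LYTE FRET peptide. Protease development 1 h; coumarin/fluorescein emission ratio gives phosphorylation. % inhibition versus uninhibited control; IC50 from concentration-response curve.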

In assay [1] the test system is TNBS-induced colitis in mice. Description: TNBS-induced colitis in mice. It counts as in vivo. The method, then:
Non-fasted, 10-12 week old, male BDF1 mice are dosed by oral gavage twice daily with either vehicle (5 mL/kg), reference item (Budesonide 2.5 mg/kg) or test compound (1 or 5 mg/kg) one day before (Day −1) stimulation of the inflammatory response by treatment with 2,4,6-trinitrobenzenesuiphonic acid (TNBS) (15 mg/mL in 50% ethanol/50% saline). On Day 0 of the study TNBS (200 μL) is administered intra-colonically via a plastic catheter followed by BID dosing of the vehicle, reference or test compound for 2 or 4 days. During the study animals are weighed every day and stool observations are made and recorded as a score, based on stool consistency. At the time of sacrifice on Day 2 (or Day 4) the large intestine is removed and the length and weight recorded. Sections of the colon are taken for either MPO analysis to determine neutrophil infiltration or for histopathology involving scoring to determine disease severity.

In a further assay the target is c-Src (Homo sapiens (Human), UniProt P12931). Briefly: c-Src enzyme inhibition (FRET, Z-LYTE). It counts as biochemical. The procedure, abridged: as §1
A further assay deals with HT29 cells. Description: IL-1β-induced IL-8 release in HT29 cells. It counts as cell-based. Conditions: Homo sapiens, HT-29, IL-1β-stimulated HT29 cells, read-out: IC50 Values for Inhibition of Cytokine Release, HT29 cells IL-8. Here is the method:
HT29 cells, a human colon adenocarcinorna cell line, are plated in a 96 well plate (24 hrs) and pre-treated with compounds at the desired concentration for 2 hours before addition of 5 ng/mL of IL-1β (Abcam) for 24 hours. Supernatants are harvested for IL-8 quantification by Sandwich ELISA (Duo-set, R&D System). The IC50 is determined from the dose response curve.

Assay [2] deals with intestinal mucosa biopsies from ulcerative colitis patients. Description: Human biopsy assay (ex-vivo cytokine release). It counts as cell-based. Here is the method:
Intestinal mucosa biopsies are obtained from the inflamed regions of the colon of IBD patients. The biopsy material is cut into small pieces (2-3 mm) and placed on steel grids in an organ culture chamber at 37° C. in a 5% CO2/95% O2 atmosphere in serum-free media. DMSO control or test compounds at the desired concentration are added to the tissue and incubated for 24 hr in the organ culture chamber. The supernatant is harvested for determination of IL-6, IL-8, IL-1β and TNFα levels by R&D ELISA. Percentage inhibition of cytokine release by the test compounds is calculated relative to the cytokine release determined for the DMSO control (100%).

Setting [3] is: 1 μg/ml, 24 hours, DMSO control 100%.

Sequence of c-Src (P12931 whole entry, looked up): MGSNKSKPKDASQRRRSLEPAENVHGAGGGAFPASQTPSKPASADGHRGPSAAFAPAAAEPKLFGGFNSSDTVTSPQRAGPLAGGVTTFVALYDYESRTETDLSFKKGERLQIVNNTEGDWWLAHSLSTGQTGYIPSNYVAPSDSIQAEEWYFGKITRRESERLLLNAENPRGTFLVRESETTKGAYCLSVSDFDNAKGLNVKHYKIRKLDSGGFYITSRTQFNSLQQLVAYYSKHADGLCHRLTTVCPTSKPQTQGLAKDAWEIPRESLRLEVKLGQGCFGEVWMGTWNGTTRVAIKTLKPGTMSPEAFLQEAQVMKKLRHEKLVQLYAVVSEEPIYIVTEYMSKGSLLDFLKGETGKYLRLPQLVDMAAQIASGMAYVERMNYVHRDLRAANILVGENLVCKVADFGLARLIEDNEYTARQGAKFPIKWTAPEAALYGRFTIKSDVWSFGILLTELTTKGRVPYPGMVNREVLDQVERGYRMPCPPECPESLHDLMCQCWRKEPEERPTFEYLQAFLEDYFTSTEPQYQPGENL
Sequence of GSK3α (P49840 whole entry): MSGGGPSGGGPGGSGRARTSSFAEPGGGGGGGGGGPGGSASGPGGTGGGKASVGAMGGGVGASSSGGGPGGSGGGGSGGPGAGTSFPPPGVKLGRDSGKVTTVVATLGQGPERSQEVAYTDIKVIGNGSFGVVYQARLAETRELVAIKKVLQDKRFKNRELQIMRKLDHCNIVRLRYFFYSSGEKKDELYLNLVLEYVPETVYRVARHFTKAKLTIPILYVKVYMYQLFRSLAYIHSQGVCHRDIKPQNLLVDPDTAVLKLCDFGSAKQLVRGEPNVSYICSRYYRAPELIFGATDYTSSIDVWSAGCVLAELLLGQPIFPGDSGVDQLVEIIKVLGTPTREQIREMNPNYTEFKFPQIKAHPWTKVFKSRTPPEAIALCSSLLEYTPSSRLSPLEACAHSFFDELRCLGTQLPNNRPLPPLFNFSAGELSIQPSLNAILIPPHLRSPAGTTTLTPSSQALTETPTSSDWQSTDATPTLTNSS
Sequence of p38 MAPKα (Q16539 whole entry): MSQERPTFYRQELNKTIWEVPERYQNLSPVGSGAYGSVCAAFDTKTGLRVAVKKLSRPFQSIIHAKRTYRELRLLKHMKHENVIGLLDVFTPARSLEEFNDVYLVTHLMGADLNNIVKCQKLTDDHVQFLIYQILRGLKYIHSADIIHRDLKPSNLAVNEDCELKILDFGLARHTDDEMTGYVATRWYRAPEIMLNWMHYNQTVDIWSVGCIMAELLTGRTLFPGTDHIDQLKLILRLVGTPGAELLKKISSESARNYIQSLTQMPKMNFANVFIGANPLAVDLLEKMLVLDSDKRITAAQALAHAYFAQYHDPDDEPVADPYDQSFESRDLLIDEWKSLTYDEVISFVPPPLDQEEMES

As to `COCCOCCOCCOc1cc(Nc2nccc(Oc3ccc(NC(=O)Nc4cc(C(C)(C)C)nn4-c4cccc(CP(C)(C)=O)c4)c4ccccc34)n2)cc(OC)c1` [Example 60, 1-(3-(tert-Butyl)-1-(3-((dimethylphosphoryl)methyl)phenyl)-1H-pyrazol-5-yl)-3-(4-((2-((3-methoxy-5-(2-(2-(2-methoxyethoxy)ethoxy)ethoxy)phenyl)amino)pyrimidin-4-yl)oxy)-naphthalen-1-yl)urea], the IC50 was determined as 8 nM at Syk; 1100 nM against GSK3α; 71 nM against p38 MAPKα; 2 nM against c-Src; 0.8 nM in the assay on HT29 cells. The “TNBS Ulcer grade” value in assay [1] (5 mg/kg oral, conducted over 2 days, vehicle 3.6 ± 0.3 (exp. 1), 4.4 ± 0.2 (exp. 2)) is 3.6 ± 0.4. The “TNBS LP inflammation” value in assay [1] (5 mg/kg oral, conducted over 2 days, vehicle 3.9 ± 0.3 (exp. 1), 4.5 ± 0.2 (exp. 2)) is 2.8 ± 0.4. In addition, in assay [1] (conducted over 2 days), the “activity in in vivo model of colonic inflammation (histopathology analysis)” value is “significant activity”. Further, the “inflammatory cell infiltrate in the reticular and laminar propria zone” value in assay [1] (dosed orally at 5 mg/kg) is given as “marked reduction”. Further, in assay [1] (dosed orally at 5 mg/kg), the “ulcer grade and epithelial repair compared to the vehicle control” value is reported as “marked improvements”. In addition, the “cytokine (IL-1b, IL-6 and IL-8) release compared to the DMSO control” value in assay [2] (1 μg/mL, 24 hours, biopsies from ulcerative colitis patients) is recorded as “significantly inhibited”. The “IL-1b release from biopsies of UC patients” value in assay [2] (setting [3]) is reported as 1 ± 2%. Further, in assay [2] (setting [3]), the “IL-6 release from biopsies of UC patients” value was found to be 0 ± 0%. In addition, in assay [2] (setting [3]), the “IL-8 release from biopsies of UC patients” value was 2 ± 4%. The “anti-inflammatory effects in biopsies from ulcerative colitis (UC) patients” value in assay [2] (ex-vivo human biopsy model) was “significant anti-inflammatory effects”.
